Relative viability data for seven cell lines are collected here from the supplement of paper PMC10307832.

Assay in all cases: relative viability (nuclei count vs DMSO), 5 days (fraction); higher = more cells survive
Compound in assay [1]: CCC1=CN=CN=C1N2CCN(CC2)CC3=NC4=C(N3)C=C(C=C4)C(F)(F)F + O=C(c1cc(Cc2n[nH]c(=O)c3ccccc23)ccc1F)N1CCN(C(=O)C2CC2)CC1 [Olaparib] (partner 8 µM)
The method in brief: (§1)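 After 5 days of treatment, lung cancer cells in 1536-well plates were fixed and stained in a single step (final 0.05% Triton X-100, 1% formaldehyde, 1 ug/ml Hoechst) and their nuclei counted on 4× images. Treatment had been applied by pin tool the day after seeding as one drug alone or as a fixed anchor-drug dose with five library-drug doses (not always all listed) in √10 steps. Relative viability is the nuclei count of treated wells divided by that of vehicle wells, and values are medians of duplicate plates.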

Compound in assay [2]: CCn1c(-c2nonc2N)nc2cnc(Oc3cccc(NC(=O)c4ccc(OCCN5CCOCC5)cc4)c3)cc21 + CC(=O)c1c(C)c2cnc(Nc3ccc(N4CCNCC4)cn3)nc2n(C2CCCC2)c1=O [Palbociclib] (partner 0.5 µM)
Put shortly:
as §1

Compound in assay [3]: CCn1c(-c2nonc2N)nc2cnc(Oc3cccc(NC(=O)c4ccc(OCCN5CCOCC5)cc4)c3)cc21 + COc1cc2c(Oc3ccc(NC(=O)C4(C(=O)Nc5ccc(F)cc5)CC4)cc3F)ccnc2cc1OCCCN1CCOCC1 [Foretinib] (partner 0.25 µM)
Put shortly:
as §1

Compound in the assay “Mirin + Decitabine”: N=C1NC(=O)/C(=C/c2ccc(O)cc2)S1 [Mirin] + Nc1ncn([C@H]2C[C@H](O)[C@@H](CO)O2)c(=O)n1 [Decitabine] (partner 2 µM)
The method in brief:
as §1

PC-3 [JPC-3]: the relative viability in assay [1] (first compound 0.1265 µM) was determined as 1.02; in assay [1] (first compound 0.4 µM), 1.13; in assay [1] (first compound 1.265 µM), 1.02; in assay [1] (first compound 4 µM) it was 0.977; in assay [2] (first compound 0.04 µM), 0.539; in assay [2] (first compound 0.1265 µM), 0.548. The relative viability was 0.444 in assay [2] (first compound 0.4 µM); 0.497 in assay [2] (first compound 1.265 µM); 0.482 in assay [2] (first compound 4 µM); 1.06 in assay [3] (first compound 0.04 µM); 1.08 in assay [3] (first compound 0.1265 µM); 1.11 in assay [3] (first compound 0.4 µM). Further, the relative viability came out at 1.01 in assay [3] (first compound 1.265 µM); 0.942 in assay [3] (first compound 4 µM); 0.818 in the assay with Mirin + Decitabine (first compound 0.25 µM); 0.825 with Mirin + Decitabine (first compound 0.7906 µM); 0.825 with Mirin + Decitabine (first compound 2.5 µM); 0.76 with Mirin + Decitabine (first compound 7.906 µM). In addition, in the assay with Mirin + Decitabine (first compound 25 µM), the relative viability came to 0.836.

For the cell line PC-14, the relative viability in assay [1] (first compound 0.04 µM) was found to be 0.231; in assay [1] (first compound 0.1265 µM) it was 0.275; in assay [1] (first compound 0.4 µM), 0.29; in assay [1] (first compound 1.265 µM), 0.25; in assay [1] (first compound 4 µM), 0.261; in assay [2] (first compound 0.04 µM) it was 0.578. Besides, the relative viability in assay [2] (first compound 0.1265 µM) is 0.432; in assay [2] (first compound 0.4 µM) it was 0.466; in assay [2] (first compound 1.265 µM), 0.486; in assay [2] (first compound 4 µM), 0.414; in assay [3] (first compound 0.04 µM), 0.927; in assay [3] (first compound 0.1265 µM) it was 0.84. Moreover, the relative viability in assay [3] (first compound 0.4 µM) was 0.761; in assay [3] (first compound 1.265 µM) it was 0.718; in assay [3] (first compound 4 µM) it was 0.72; in the assay with Mirin + Decitabine (first compound 0.25 µM), 0.2; with Mirin + Decitabine (first compound 0.7906 µM), 0.24; with Mirin + Decitabine (first compound 2.5 µM) it was 0.232. For the same cell line, the relative viability was 0.225 in the assay with Mirin + Decitabine (first compound 7.906 µM) and 0.205 with Mirin + Decitabine (first compound 25 µM).

RERF-LC-KJ: the relative viability in assay [1] (first compound 0.04 µM) turned out to be 0.975; in assay [1] (first compound 0.1265 µM), 0.95; in assay [1] (first compound 0.4 µM) it was 0.954; in assay [1] (first compound 1.265 µM) it was 0.849; in assay [1] (first compound 4 µM), 0.885; in assay [2] (first compound 0.04 µM), 1.1. For the same cell line, the relative viability in assay [2] (first compound 0.1265 µM) is 1.08; in assay [2] (first compound 0.4 µM), 0.969; in assay [2] (first compound 1.265 µM), 0.655; in assay [2] (first compound 4 µM), 0.678; in assay [3] (first compound 0.04 µM) it was 1.02; in assay [3] (first compound 0.1265 µM) it was 0.829. Besides, the relative viability in assay [3] (first compound 0.4 µM) amounted to 0.74; in assay [3] (first compound 1.265 µM), 0.532; in assay [3] (first compound 4 µM), 0.532; with Mirin + Decitabine (first compound 0.25 µM) it was 0.691; with Mirin + Decitabine (first compound 0.7906 µM), 0.753; in the assay with Mirin + Decitabine (first compound 2.5 µM), 0.684. For the same cell line, the relative viability amounted to 0.622 with Mirin + Decitabine (first compound 7.906 µM) and 0.561 with Mirin + Decitabine (first compound 25 µM).

For SK-LU-1, the relative viability in assay [1] (first compound 0.04 µM) amounted to 0.452; in assay [1] (first compound 0.1265 µM), 0.438; in assay [1] (first compound 0.4 µM) it was 0.47; in assay [1] (first compound 1.265 µM) it was 0.443; in assay [1] (first compound 4 µM), 0.442; in assay [2] (first compound 0.04 µM), 0.434. Further, the relative viability came out at 0.368 in assay [2] (first compound 0.1265 µM); 0.337 in assay [2] (first compound 0.4 µM); 0.275 in assay [2] (first compound 1.265 µM); 0.295 in assay [2] (first compound 4 µM); 0.837 in assay [3] (first compound 0.04 µM); 0.621 in assay [3] (first compound 0.1265 µM). Besides, the relative viability in assay [3] (first compound 0.4 µM) is 0.587; in assay [3] (first compound 1.265 µM) it was 0.333; in assay [3] (first compound 4 µM), 0.318; with Mirin + Decitabine (first compound 0.25 µM), 0.713; with Mirin + Decitabine (first compound 0.7906 µM), 0.618; in the assay with Mirin + Decitabine (first compound 2.5 µM), 0.8. In addition, the relative viability amounted to 0.494 with Mirin + Decitabine (first compound 7.906 µM) and 0.509 with Mirin + Decitabine (first compound 25 µM).

SK-MES-1: the relative viability in assay [1] (first compound 0.04 µM) was 0.657; in assay [1] (first compound 0.1265 µM), 0.643; in assay [1] (first compound 0.4 µM), 0.684; in assay [1] (first compound 1.265 µM), 0.592; in assay [1] (first compound 4 µM), 0.673; in assay [2] (first compound 0.04 µM), 0.353. The relative viability in assay [2] (first compound 0.1265 µM) came out at 0.301; in assay [2] (first compound 0.4 µM) it was 0.284; in assay [2] (first compound 1.265 µM) it was 0.303; in assay [2] (first compound 4 µM) it was 0.309; in assay [3] (first compound 0.04 µM), 1.03; in assay [3] (first compound 0.1265 µM), 0.645. Also, the relative viability turned out to be 0.502 in assay [3] (first compound 0.4 µM); 0.674 in assay [3] (first compound 1.265 µM); 0.638 in assay [3] (first compound 4 µM); 0.347 with Mirin + Decitabine (first compound 0.25 µM); 0.446 with Mirin + Decitabine (first compound 0.7906 µM); 0.372 in the assay with Mirin + Decitabine (first compound 2.5 µM). Further, the relative viability with Mirin + Decitabine (first compound 7.906 µM) came to 0.292; with Mirin + Decitabine (first compound 25 µM) it was 0.329.

SW 900: the relative viability in assay [1] (first compound 0.04 µM) worked out at 0.928; in assay [1] (first compound 0.1265 µM) it was 0.764; in assay [1] (first compound 0.4 µM), 0.863; in assay [1] (first compound 4 µM), 0.82; in assay [2] (first compound 0.04 µM) it was 0.54; in assay [2] (first compound 0.1265 µM), 0.517. In addition, the relative viability was found to be 0.572 in assay [2] (first compound 0.4 µM); 0.521 in assay [2] (first compound 1.265 µM); 0.574 in assay [2] (first compound 4 µM); 1.04 in assay [3] (first compound 0.04 µM); 0.977 in assay [3] (first compound 0.1265 µM); 0.91 in assay [3] (first compound 0.4 µM). In addition, the relative viability came to 0.995 in assay [3] (first compound 1.265 µM); 0.886 in assay [3] (first compound 4 µM); 0.326 in the assay with Mirin + Decitabine (first compound 0.25 µM); 0.413 with Mirin + Decitabine (first compound 0.7906 µM); 0.438 with Mirin + Decitabine (first compound 2.5 µM); 0.414 with Mirin + Decitabine (first compound 7.906 µM). In addition, the relative viability with Mirin + Decitabine (first compound 25 µM) was found to be 0.384.

In the case of SW 1573, the relative viability is 0.447 in assay [1] (first compound 0.04 µM); 0.462 in assay [1] (first compound 0.1265 µM); 0.45 in assay [1] (first compound 0.4 µM); 0.443 in assay [1] (first compound 1.265 µM); 0.379 in assay [1] (first compound 4 µM); 0.454 in assay [2] (first compound 0.04 µM). Further, the relative viability in assay [2] (first compound 0.1265 µM) was determined as 0.355; in assay [2] (first compound 0.4 µM), 0.349; in assay [2] (first compound 1.265 µM) it was 0.206; in assay [2] (first compound 4 µM), 0.211; in assay [3] (first compound 0.04 µM), 1.1; in assay [3] (first compound 0.1265 µM) it was 0.926. Also, the relative viability came to 0.527 in assay [3] (first compound 0.4 µM); 0.539 in assay [3] (first compound 1.265 µM); 0.354 in assay [3] (first compound 4 µM); 0.605 with Mirin + Decitabine (first compound 0.25 µM); 0.61 with Mirin + Decitabine (first compound 0.7906 µM); 0.482 with Mirin + Decitabine (first compound 2.5 µM). For the same cell line, the relative viability with Mirin + Decitabine (first compound 7.906 µM) was determined as 0.412; in the assay with Mirin + Decitabine (first compound 25 µM), 0.247.
